Tested on: DLD-1 multicell layers
Test: Penetration of EO9 through DLD-1 multicell layers (transwell apparatus, HPLC)
Type: in vitro ADME, human
Procedure: The cell line used in this study was DLD-1 human colon adenocarcinoma cells which was selected because of its ability to form tight junctions between cells thereby forming a continuous ‘barrier’ across which the drug must cross. To assess drug penetration, drugs were added to the top chamber and the concentration of drug in the bottom chamber was determined over a range of time intervals.
DLD-1 cells (2.5×10^5 in 200 μl of medium) were added to the top chamber and allowed to settle and attach to the membrane for approximately 3 hours at 37° C. in a CO2 enriched (5%) atmosphere. Once cells attached, the transwell was inserted into one well of a 24 well plate and 600 μl media was added to the bottom chamber. The apparatus was then incubated at 37° C. for 4 days with daily media changes to both the upper and lower chamber. […] For each assay, 3 transwells were removed for histological examination and accurate determination of thickness and integrity (see below for details).
Throughout all procedures, the media used was as described above except for the fact that phenol red free media was used (phenol red elutes very close to EO9 on the chromatograms). EO9 was added to the top chamber at t=0 in a volume of 100 μl and the bottom chamber contained 600 μl of media (constantly stirred). […]

Cn1c(/C=C/CO)c(CO)c2c1C(=O)C=C(N1CC1)C2=O [EO9, 3-hydroxymethyl-5-aziridinyl-1-methyl-2-(1H-indole-4,7-dione)-propenol]
multicell layer penetration rate of EO9 (as the concentration of PG increases, 347 μM in top chamber, 10 minute intervals over 1 hour): decreases | metabolites or breakdown products observed (at any of the evaluated time points of the penetration experiment): No obvious metabolites or breakdown products were observed

Reference: patent US20070203112A1, “BLADDER CANCER TREATMENT AND METHODS” (priority 2006, published 2007)
